Structures can show the parent of a compound that is named as a salt. Where two headings read alike, the source gives them in different places.
Tests used:
P. aeruginosa ATCC 27853 = settings: ATCC 27853, in vivo, iv, 9 h
Pseudomonas aeruginosa [1] = test: MIC, compound in combination with a second agent (broth microdilution); format: cell-based; settings: 1:1 (wt:wt) combination with Rifampicin, MIC = total drug concentration
In short: (§1)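 Broth microdilution with inoculum from 18-24 h Mueller-Hinton agar colonies adjusted to 0.5 McFarland, up to four strains per species. Compound combined 1:1 w/w with second agent (e.g. rifampicin), mass as salt form; MIC is total drug concentration. Duplicates, lower value reported if within 2-fold; modal value for repeat tests.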

Acinetobacter baumannii [2] = test: as above; format: cell-based; settings: 1:1 (wt:wt) combination with Rifampicin, MIC = total drug concentration
In short: as §1

Escherichia coli [3] = test: as above; format: cell-based; settings: 1:1 (wt:wt) combination with Rifampicin, MIC = total drug concentration
In short: as §1

Klebsiella pneumoniae [4] = test: as above; format: cell-based; settings: 1:1 (wt:wt) combination with Rifampicin; MIC = total drug concentration; strain CCUG-59348
In short: as §1

Pseudomonas aeruginosa [5] = test: MIC, sole activity (no second agent); format: cell-based
In short: (§2)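 Compound tested without a second agent in cation-adjusted MHB, up to four strains per species, inoculum at 0.5 McFarland from colonies grown 18-24 h on Mueller-Hinton agar. Run in duplicate, invalid beyond 2-fold disagreement, lower duplicate or modal repeat value given, expressed relative to Polymyxin B.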

Acinetobacter baumannii [6] = test: MIC, sole activity (no second agent); format: cell-based
In short: as §2

Escherichia coli [7] = test: MIC, sole activity (no second agent); format: cell-based
In short: as §2

Klebsiella pneumoniae [8] = test: MIC, sole activity (no second agent); format: cell-based
In short: as §2

HK-2 cell line = test: In vitro renal cell toxicity assay (resazurin reduction); format: cell-based, human
[9] = Table 6A, no second agent, different supplier of Cation-adjusted MHB

MIC P. aeruginosa ATCC 27853 (Pseudomonas aeruginosa [1]; strain ATCC 27853): 0.125 micrograms/mL
MIC P. aeruginosa ATCC CRM-9027 (Pseudomonas aeruginosa [1]; strain ATCC CRM-9027): 0.25 micrograms/mL
MIC P. aeruginosa ATCC-47 (Pseudomonas aeruginosa [1]; strain ATCC-47): 0.125 micrograms/mL
MIC P. aeruginosa CCUG 59626 (Pseudomonas aeruginosa [1]; strain CCUG 59626): 0.125 micrograms/mL
MIC A. baumannii ATCC BAA-747 (Acinetobacter baumannii [2]; strain ATCC BAA-747): 0.125 micrograms/mL
MIC A. baumannii CCUG57249 (Acinetobacter baumannii [2]; strain CCUG57249): ≤0.06 micrograms/mL
MIC A. baumannii NCTC 13423 (Acinetobacter baumannii [2]; strain NCTC 13423): ≤0.06 micrograms/mL
MIC A. baumannii NCTC 13424 (Acinetobacter baumannii [2]; strain NCTC 13424): 0.125 micrograms/mL
MIC E. coli ATCC25922 (Escherichia coli [3]; strain ATCC25922): ≤0.06 micrograms/mL
MIC E. coli NCTC9001 (Escherichia coli [3]; strain NCTC9001): 0.125 micrograms/mL
MIC K. pneumoniae CCUG-59348 (Klebsiella pneumoniae [4]): 1 micrograms/mL
MIC P. aeruginosa ATCC 27853 (Pseudomonas aeruginosa [5]; [9]): 0.25 micrograms/mL
MIC P. aeruginosa CCUG 59347 (Pseudomonas aeruginosa [5]; [9]): 0.5 micrograms/mL
MIC P. aeruginosa ATCC 27853 (Pseudomonas aeruginosa [5]; in the absence of Rifampicin, strain ATCC27853): 0.125 micrograms/mL
MIC P. aeruginosa ATCC-47 (Pseudomonas aeruginosa [5]; in the absence of Rifampicin, strain ATCC-47): 1 micrograms/mL
MIC P. aeruginosa ATCCCRM-9027 (Pseudomonas aeruginosa [5]; in the absence of Rifampicin, strain ATCCCRM-9027): 0.125 micrograms/mL
MIC P. aeruginosa CCUG 59626 (Pseudomonas aeruginosa [5]; in the absence of Rifampicin, strain CCUG 59626): ≤0.06 micrograms/mL
MIC A. baumannii ATCC BAA-747 (Acinetobacter baumannii [6]; [9]): 1 micrograms/mL
MIC A. baumannii NCTC 13424 (Acinetobacter baumannii [6]; [9]): 2 micrograms/mL
MIC A. baumannii ATCC13424 (Acinetobacter baumannii [6]; in the absence of Rifampicin, strain ATCC13424): 0.125 micrograms/mL
MIC A. baumannii ATCCBAA-747 (Acinetobacter baumannii [6]; in the absence of Rifampicin, strain ATCCBAA-747): 1 micrograms/mL
MIC A. baumannii CCUG57249 (Acinetobacter baumannii [6]; in the absence of Rifampicin, strain CCUG 57249): 1 micrograms/mL
MIC A. baumannii NCTC 13423 (Acinetobacter baumannii [6]; in the absence of Rifampicin, strain NCTC13423): 0.25 micrograms/mL
MIC E. coli ATCC25922 (Escherichia coli [7]; [9]): 2 micrograms/mL
MIC E. coli NCTC 13441 (Escherichia coli [7]; [9]): 2 micrograms/mL
MIC E. coli ATCC25922 (Escherichia coli [7]; in the absence of Rifampicin, strain ATCC25922): 2 micrograms/mL
MIC E. coli NCTC9001 (Escherichia coli [7]; in the absence of Rifampicin, strain NCTC9001): 4 micrograms/mL
MIC K. pneumoniae ATCC 4352 (Klebsiella pneumoniae [8]; [9]): 1 micrograms/mL
MIC K. pneumoniae ATCC BAA-2146 (Klebsiella pneumoniae [8]; [9]): 2 micrograms/mL
MIC K. pneumoniae ATCC 4352 (Klebsiella pneumoniae [8]; in the absence of Rifampicin, strain ATCC 4352): 1 micrograms/mL
MIC K. pneumoniae ATCC-BAA2146 (Klebsiella pneumoniae [8]; in the absence of Rifampicin, strain ATCC-BAA2146): 32 micrograms/mL
MIC K. pneumoniae CCUG-59348 (Klebsiella pneumoniae [8]; in the absence of Rifampicin, strain CCUG-59348): >32 micrograms/mL
SMILES: CC(C)C[C@@H]1NC(=O)[C@@H](Cc2ccccc2)NC(=O)[C@H](CCN)NC(=O)[C@@H](NC(=O)[C@H](CCN)NC(=O)[C@@H](NC(=O)[C@H](CCN)NC(=O)CC(N)C2CCCCC2)C(C)O)CCNC(=O)[C@H](C(C)O)NC(=O)[C@H](CCN)NC(=O)[C@H](CCN)NC1=O (mixture of isomers) [Example 39, 3-(RS)-(3-Amino-3-cyclohexyl)propanoyl polymyxin B decapeptide, trifluoroacetate salt]
Log reduction from vehicle (CFU/g) (P. aeruginosa ATCC 27853; 2 mg/kg): 2.56 log CFU/g
Log reduction from vehicle (CFU/g) (P. aeruginosa ATCC 27853; 4 mg/kg): 3.88 log CFU/g
HK-2 IC50 rel to PMB (HK-2 cell line): 1.5-2

Reference: patent US10407467B2, “Polymyxin derivatives and their use in combination therapy together with different antibiotics” (priority 2013, dated 2019)
